Reference: US20120115827A1, “3-AMINOBENZAMIDE COMPOUNDS AND VANILLOID RECEPTOR SUBTYPE 1 (VR1) INHIBITORS” (Japan Tobacco Inc., priority 2004, published 2012)

Target: T1, human VR1 (Homo sapiens, UniProt Q8NER1)
T1 construct: expressed in transfected cells
Assay: Inhibition of Ca2+ entry in cells caused by proton (VR1 agonist)
Assay type: cell-based
Conditions: Rat glioma (C6BU1) cells stably expressing human VR1; proton stimulation to pH 5.5; Fura 2-AM fluorescence; read-out: In vitro IC50
Experimental: The assay for evaluation of VR1 inhibition by the inventive compounds will be described below. The assay was intended to evaluate in vitro inhibition of Ca^2+ entry in cells caused by proton, one of the VR1 agonists.
Rat glioma (C6BU1) cells stably expressing human VR1 were suspended in 20 mM MES buffer (at pH 6.8, contg. 20 mM 2-morpholinoethanesulfonate (referred to as MES hereinafter), 115 mM NaCl, 5 mM KCl, 1 mM MgCl2 and 14 mM D-glucose) to make a cell density of 1×10^6 cells/mL. A fluorescent dye, Fura 2-AM solution (Dojindo Corporate, Cat. No. 343-05401) was added to the suspension to make a 5 μM concentration thereof. Further, Pluronic F-127 (Wako Pure Chemical Industries, Ltd., Cat. No. P6866) was added to make a 0.1% content thereof. Then, the suspension was incubated at 37° C. for 30 min. The cells were harvested and washed three times with 20 mM MES buffer. The cells were suspended again to make a cell density of 5×10^5 cells/mL. A 500-μL portion of the suspension was taken with a cuvette (MC MEDICAL, INC., Cat. No. SSR3121), to which […] MES buffer containing 250 mM CaCl2 was added to incorporate Ca^2+ into the cells. At the same time, 5 μL of a test compound solution (in a range of 100 μM to 10 nM in DMSO) was also added to provide a final concentration thereof in a range of 1 μM to 0.1 nM. Alternatively, 5 μl of DMSO was added as control to provide a final concentration of 1% DMSO. The suspension was set in an intracellular ionometer (CAF-110; JASCO) 10 min after those additions. The cells were stimulated with protons by addition of 60 μL of 20 mM MES buffer at pH 1.1 to the suspension to set its pH at 5.5. The activity of the test compound was determined as a difference between the minimum of fluorescence intensity before agonist stimulation and its maximum after the stimulation. The value of IC50 was derived from percentage of inhibition by the test compound compared with the control.

T1 sequence (Q8NER1 whole entry): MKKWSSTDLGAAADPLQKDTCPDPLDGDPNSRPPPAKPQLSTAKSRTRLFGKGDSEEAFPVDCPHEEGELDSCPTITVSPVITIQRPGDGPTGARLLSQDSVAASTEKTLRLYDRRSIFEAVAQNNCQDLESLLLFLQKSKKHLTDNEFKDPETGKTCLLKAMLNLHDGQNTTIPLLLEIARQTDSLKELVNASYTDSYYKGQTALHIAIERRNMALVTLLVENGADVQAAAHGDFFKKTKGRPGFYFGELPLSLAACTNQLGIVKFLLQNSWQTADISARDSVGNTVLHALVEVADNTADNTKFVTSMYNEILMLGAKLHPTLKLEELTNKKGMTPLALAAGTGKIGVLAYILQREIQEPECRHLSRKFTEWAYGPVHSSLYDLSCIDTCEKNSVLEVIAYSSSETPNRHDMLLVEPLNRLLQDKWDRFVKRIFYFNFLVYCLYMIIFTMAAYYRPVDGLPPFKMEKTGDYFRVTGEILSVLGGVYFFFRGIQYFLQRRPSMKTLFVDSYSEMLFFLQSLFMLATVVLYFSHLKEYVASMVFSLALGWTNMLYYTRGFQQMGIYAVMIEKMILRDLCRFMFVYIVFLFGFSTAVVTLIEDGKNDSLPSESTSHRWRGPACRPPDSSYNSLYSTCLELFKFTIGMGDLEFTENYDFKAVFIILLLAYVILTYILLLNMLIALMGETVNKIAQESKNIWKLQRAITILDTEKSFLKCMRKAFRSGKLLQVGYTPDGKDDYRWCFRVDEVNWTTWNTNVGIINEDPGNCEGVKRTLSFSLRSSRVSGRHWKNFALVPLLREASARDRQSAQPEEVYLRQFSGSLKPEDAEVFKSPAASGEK

IC50	SMILES
≤ 100 nM	NC(=O)CN(c1cc(C(=O)Nc2ccc(C(F)(F)F)cc2)ccc1Cl)c1ncc(C(F)(F)F)cc1Cl [Example 68, 4-chloro-3-[N-(3-chloro-5-trifluoromethylpyridin-2-yl)-N-(carbamoylmethyl)amino]-N-(4-trifluoromethylphenyl)-benzamide]
≤ 100 nM	COc1c(C(=O)Nc2ccc(C(C)(C)C)cc2)cccc1N(C)c1ncccc1Cl [Example 26, N-(4-tert-butylphenyl)-3-[N-(3-chloropyridin-2-yl)-N-methyl]amino-2-methoxybenzamide]
≤ 100 nM	COc1ccc(C(=O)Nc2ccc(C(C)(C)C)cc2)cc1N(CCO)c1ncccc1Cl [Example 28, N-(4-tert-butylphenyl)-3-[N-(3-chloropyridin-2-yl)-N-(2-hydroxyethyl)]amino-4-methoxybenzamide]
100 to 1000 nM	CN(c1ccccn1)c1cc(C(=O)Nc2ccc(C(C)(C)C)cc2)ccc1Cl [Example 13, N-(4-tert-butylphenyl)-4-chloro-3-[N-(pyridin-2-yl)-N-methyl-amino]benzamide]
≤ 100 nM	CN(c1cccc(C(=O)Nc2ccc(C(C)(C)C)cc2)c1)c1ccccc1Cl [Example 33, N-(4-tert-butylphenyl)-3-[N-(2-chlorophenyl)-N-methyl-amino]benzamide]
≤ 100 nM	CCN(c1cccc(C(=O)Nc2ccc(C(C)(C)C)cc2)c1)c1ncccc1Cl [Example 3, N-(4-tert-butylphenyl)-3-[N-(3-chloropyridin-2-yl)-N-ethyl-amino]benzamide]

More lines, now with the values behind:

SMILES	IC50
COc1ccc(C(=O)Nc2ccc(C(C)(C)C)cc2)cc1N(c1ncccc1Cl)C(C)C [Example 11, N-(4-tert-butylphenyl)-3-[N-(3-chloropyridin-2-yl)-N-isopropyl]amino-4-methoxybenzamide]	≤ 100 nM
NC(=O)CN(c1ccc(Cl)cn1)c1cc(C(=O)Nc2ccc(OC(F)(F)F)cc2)ccc1Cl [Example 69]	≤ 100 nM
CN(c1cc(C(=O)Nc2ccc(Cl)cc2)ccc1Cl)c1ncc(CO)cc1Cl [Example 80, 4-chloro-3-[N-(3-chloro-5-hydroxymethylpyridin-2-yl)-N-methyl-amino]-N-(4-chlorophenyl)-benzamide]	≤ 100 nM
O=C(Nc1ccc(N2CCCCC2)c(F)c1)c1ccc(Cl)c(N(CCO)c2ncccc2Cl)c1 [Example 43, 4-chloro-3-[N-(3-chloropyridin-2-yl)-N-(2-hydroxyethyl)amino]-N-(3-fluoro-4-piperidinylphenyl)-benzamide]	≤ 100 nM
CN(c1cc(C(=O)Nc2ccc(C(F)(F)F)cc2)ccc1Cl)c1ncc(CO)cc1Cl [Example 79, 4-chloro-3-[N-(3-chloro-5-hydroxymethylpyridin-2-yl)-N-methyl-amino]-N-(4-trifluoromethylphenyl)-benzamide]	≤ 100 nM
CC(C)(C)c1ccc(NC(=O)c2ccc(Cl)c(N(CC(=O)NCCO)c3ncccc3Cl)c2)cc1 [Example 57, N-(4-tert-butylphenyl)-4-chloro-3-{N-(3-chloropyridin-2-yl)-N—[N-(2-hydroxyethyl)carbamoylmethyl]amino}-benzamide]	≤ 100 nM
CN(c1cccc(C(=O)Nc2ccc(C(C)(C)C)cc2)c1OCCO)c1ncccc1Cl [Example 27, N-(4-tert-butylphenyl)-3-[N-(3-chloropyridin-2-yl)-N-methyl-amino]-2-(2-hydroxyethyl)oxybenzamide]	≤ 100 nM
